Among the data in US11279735B2, “Cyclic peptide antibiotics” (priority 2017, dated 2022) are MIC values, retold here.

The experiment has as its system Escherichia coli (E. coli) strain CFT073 ATCC 700928. It is filed as cell-based. To be noted: ATCC 700928, 22 h. Summed up:
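Broth microdilution MIC per CLSI M07-A8 in cation-adjusted Mueller Hinton II broth with 0.002% Tween-80. Ten-point 2-fold series topped at 64, 4, 0.5 or 0.13 μg/mL depending on protocol. Final inoculum OD600 0.0005, incubated 22 h at 35 °C.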

Converted amounts (≈) assume the structure as drawn. *1 amine or outer side, *2 acyl side, *3 side chain or, on linkers, in order; H or OH if unused. Where a SMILES comes first, the peptide text is derived from it. [ ]: non-standard residue; d: D form. X23 = CCCCCCCCCC[C@@H](OCCN[*:1])[C@@H](C)C(=O)[*:2]; aIle = CC[C@@H](C)[C@H](N)C(=O)O; NMeL = CN[C@@H](CC(C)C)C(=O)O; Dap = NC[C@H](N)C(=O)O

In turn, `CCCCCCCCCC[C@H]1OC(=O)CNC(=O)[C@H]([C@H](C)O)NC(=O)[C@H](CN)NC(=O)[C@H](CCCOC)NC(=O)[C@H](CC(C)C)N(C)C(=O)[C@@H]1C` [Example 87, (6S,9S,12S,15S,18R,19R)-9-(aminomethyl)-19-decyl-15-isobutyl-12-(3-methoxypropyl)-16,18-dimethyl-6-[(1S)-1-hydroxyethyl]-1-oxa-4,7,10,13,16-pentazacyclononadecane-2,5,8,11,14,17-hexone] showed an MIC of 50 µM (≈ 36.3 µg/mL).
With `CCCCCCCCCC[C@H]1OC(=O)CNC(=O)[C@H]([C@H](C)O)NC(=O)[C@H](CN)NC(=O)[C@H]([C@H](C)CC)NC(=O)[C@H](CCc2ccccc2)N(C)C(=O)[C@@H]1C` [Example 88, (6S,9S,12S,15S,18R,19R)-9-(aminomethyl)-19-decyl-16,18-dimethyl-15-(2-phenylethyl)-6-[(1S)-1-hydroxyethyl]-12-[(1R)-1-methylpropyl]-1-oxa-4,7,10,13,16-pentazacyclononadecane-2,5,8,11,14,17-hexone] the figure was 50 µM (≈ 38 µg/mL).
The compound `CC[C@@H](C)[C@@H]1NC(=O)[C@H](CC(C)C)N(C)C(=O)[C@H](C)[C@@H](CCCCc2ccccc2)OC(=O)CNC(=O)[C@H]([C@H](C)O)NC(=O)[C@H](CN)NC1=O` [Example 89, (6S,9S,12S,15S,18R,19R)-9-(aminomethyl)-15-isobutyl-16,18-dimethyl-19-(4-phenylbutyl)-6-[(1S)-1-hydroxyethyl]-12-[(1R)-1-methylpropyl]-1-oxa-4,7,10,13,16-pentazacyclononadecane-2,5,8,11,14,17-hexone] returned a minimum inhibitory concentration (MIC) of 12 µM (≈ 8.43 µg/mL).
With `CCCCCC[C@H]1OC(=O)CNC(=O)[C@H]([C@H](C)O)NC(=O)[C@H](CN)NC(=O)[C@H](CC(C)C)NC(=O)[C@H](CC(C)C)N(C)C(=O)[C@@H]1C` [Example 90, (6S,9S,12S,15S,18R,19R)-9-(aminomethyl)-19-hexyl-12,15-diisobutyl-16,18-dimethyl-6-[(1S)-1-hydroxyethyl]-1-oxa-4,7,10,13,16-pentazacyclononadecane-2,5,8,11,14,17-hexone] the figure was 21 µM (≈ 13.8 µg/mL); with `CCCCCC[C@H]1OC(=O)CNC(=O)[C@H]([C@H](C)O)NC(=O)[C@H](CN)NC(=O)[C@H](Cc2ccccc2)NC(=O)[C@H](CC(C)C)N(C)C(=O)[C@@H]1C` [Example 91, (6S,9S,12S,15S,18R,19R)-9-(aminomethyl)-12-benzyl-19-hexyl-15-isobutyl-16,18-dimethyl-6-[(1S)-1-hydroxyethyl]-1-oxa-4,7,10,13,16-pentazacyclononadecane-2,5,8,11,14,17-hexone], 50 µM (≈ 34.4 µg/mL).
The same measure for `CCCCCCCCCC[C@H]1OC(=O)CNC(=O)[C@H](COCCOCCN)NC(=O)[C@H](CO)NC(=O)[C@H]([C@@H](C)CC)NC(=O)[C@H](CC(C)C)N(C)C(=O)[C@@H]1C` [Example 92, (6S,9S,12S,15S,18R,19R)-6-[2-(2-aminoethoxy)ethoxymethyl]-19-decyl-9-(hydroxymethyl)-15-isobutyl-16,18-dimethyl-12-[(1S)-1-methylpropyl]-1-oxa-4,7,10,13,16-pentazacyclononadecane-2,5,8,11,14,17-hexone]: 19 µM (≈ 14.9 µg/mL).
The same measure for `CCCCCCCCCC[C@H]1OC(=O)[C@@H](CC)NC(=O)[C@H]([C@H](C)O)NC(=O)[C@H](CN)NC(=O)[C@H]([C@H](C)CC)NC(=O)[C@H](CC(C)C)N(C)C(=O)[C@@H]1C` [Example 93, (3R,6S,9S,12S,15S,18R,19R)-9-(aminomethyl)-19-decyl-3-ethyl-15-isobutyl-16,18-dimethyl-6-[(1S)-1-hydroxyethyl]-12-[(1R)-1-methylpropyl]-1-oxa-4,7,10,13,16-pentazacyclononadecane-2,5,8,11,14,17-hexone]: 10 µM (≈ 7.39 µg/mL); for `CC[C@@H](C)[C@@H]1NC(=O)[C@H](CC(C)C)N(C)C(=O)[C@H](C)[C@@H](CCC23CC4CC(CC(C4)C2)C3)OC(=O)CNC(=O)[C@H](CO)NC(=O)[C@H](CN)NC1=O` [Example 94, (6S,9S,12S,15S,18R,19R)-19-[2-(1-adamantyl)ethyl]-9-(aminomethyl)-6-(hydroxymethyl)-15-isobutyl-16,18-dimethyl-12-[(1R)-1-methylpropyl]-1-oxa-4,7,10,13,16-pentazacyclononadecane-2,5,8,11,14,17-hexone]: 4.4 µM (≈ 3.16 µg/mL).
As for `CCCCCCCCCC[C@H]1OC(=O)CNC(=O)[C@H](COCCCN)NC(=O)[C@H](CO)NC(=O)[C@H]([C@@H](C)CC)NC(=O)[C@H](CC(C)C)N(C)C(=O)[C@@H]1C` [Example 95, (6S,9S,12S,15S,18R,19R)-6-(3-aminopropoxymethyl)-19-decyl-9-(hydroxymethyl)-15-isobutyl-16,18-dimethyl-12-[(1S)-1-methylpropyl]-1-oxa-4,7,10,13,16-pentazacyclononadecane-2,5,8,11,14,17-hexone], the minimum inhibitory concentration (MIC) was 14 µM (≈ 10.6 µg/mL).
Turning to `CCCCCC[C@H]1OC(=O)CNC(=O)[C@H]([C@H](C)O)NC(=O)[C@H](CN)NC(=O)[C@H](C2CCCCC2)NC(=O)[C@H](CC(C)C)N(C)C(=O)[C@@H]1Cc1ccc(C)cc1` [Example 96, (6S,9S,12S,15S,18R,19R)-9-(aminomethyl)-12-cyclohexyl-19-hexyl-15-isobutyl-16-methyl-18-(p-tolylmethyl)-6-[(1S)-1-hydroxyethyl]-1-oxa-4,7,10,13,16-pentazacyclononadecane-2,5,8,11,14,17-hexone], the MIC was determined as 5.3 µM (≈ 4.09 µg/mL). This MIC lies about 2.6-fold lower than the previous one.
With `CCCCCC[C@H]1OC(=O)CNC(=O)[C@H]([C@H](C)O)NC(=O)[C@H](CN)NC(=O)[C@H](C2CCCCC2)NC(=O)[C@H](CC(C)C)N(C)C(=O)[C@@H]1CCc1ccc(C)cc1` [Example 97, (6S,9S,12S,15S,18R,19R)-9-(aminomethyl)-12-cyclohexyl-19-hexyl-15-isobutyl-16-methyl-18-[2-(p-tolyl)ethyl]-6-[(1S)-1-hydroxyethyl]-1-oxa-4,7,10,13,16-pentazacyclononadecane-2,5,8,11,14,17-hexone] the figure was 3.7 µM (≈ 2.9 µg/mL); with `CCCCCC[C@H]1OC(=O)CNC(=O)[C@H]([C@H](C)O)NC(=O)[C@H](CN)NC(=O)[C@H](c2ccccc2)NC(=O)[C@H](CC(C)C)N(C)C(=O)[C@@H]1C` [Example 98, (6S,9S,12S,15S,18R,19R)-9-(aminomethyl)-19-hexyl-15-isobutyl-16,18-dimethyl-12-phenyl-6-[(1S)-1-hydroxyethyl]-1-oxa-4,7,10,13,16-pentazacyclononadecane-2,5,8,11,14,17-hexone], 71 µM (≈ 47.9 µg/mL).
The same measure for `CCCCCCCCCC[C@H]1OCCNC(=O)[C@H](CO)NC(=O)[C@H](CN)NC(=O)[C@H]([C@H](C)CC)NC(=O)[C@H](CC(C)C)N(C)C(=O)[C@@H]1C` [Example 99, (6S,9S,12S,15S,18R,19R)-9-(aminomethyl)-19-decyl-6-(hydroxymethyl)-15-isobutyl-16,18-dimethyl-12-[(1R)-1-methylpropyl]-1-oxa-4,7,10,13,16-pentazacyclononadecane-5,8,11,14,17-pentone] (cyclo([Dap]S[X23][NMeL][aIle])): 17 µM (≈ 11.6 µg/mL).
Turning to `CCCCCC[C@H]1OC(=O)CNC(=O)[C@H]([C@H](C)O)NC(=O)[C@H]([C@H](C)O)NC(=O)[C@H]([C@H](C)CC)NC(=O)[C@H](CC(C)C)N(C)C(=O)[C@@H]1C` [Example 100, (6S,9S,12S,15S,18R,19R)-19-hexyl-15-isobutyl-16,18-dimethyl-6,9-bis[(1S)-1-hydroxyethyl]-12-[(1R)-1-methylpropyl]-1-oxa-4,7,10,13,16-pentazacyclononadecane-2,5,8,11,14,17-hexone], the MIC is 35 µM (≈ 23.4 µg/mL).
`CCCCCC[C@H]1OC(=O)CNC(=O)[C@H]([C@H](C)O)NC(=O)[C@H](CN)NC(=O)[C@H](C2CCCCC2)NC(=O)[C@H](CCC)N(C)C(=O)[C@@H]1C` [Example 101, (6S,9S,12S,15S,18R,19R)-9-(aminomethyl)-12-cyclohexyl-19-hexyl-16,18-dimethyl-15-propyl-6-[(1S)-1-hydroxyethyl]-1-oxa-4,7,10,13,16-pentazacyclononadecane-2,5,8,11,14,17-hexone] registered an MIC of 4.1 µM (≈ 2.73 µg/mL). Against the preceding compound, the MIC is about 8.5-fold lower.
The same measure for `CCCCCC[C@H]1OC(=O)CNC(=O)[C@H]([C@@H](O)CO)NC(=O)[C@H](CN)NC(=O)[C@H](C2CCCCC2)NC(=O)[C@H](CC(C)C)N(C)C(=O)[C@@H]1C` [Example 102, (6S,9S,12S,15S,18R,19R)-9-(aminomethyl)-12-cyclohexyl-19-hexyl-15-isobutyl-16,18-dimethyl-6-[(1R)-1,2-dihydroxyethyl]-1-oxa-4,7,10,13,16-pentazacyclononadecane-2,5,8,11,14,17-hexone]: 3.1 µM (≈ 2.16 µg/mL); for `CCCC(C)(C)CC[C@H]1OC(=O)CNC(=O)[C@H]([C@H](C)O)NC(=O)[C@H](CN)NC(=O)[C@H]([C@H](C)CC)NC(=O)[C@H](CC(C)C)N(C)C(=O)[C@@H]1C` [Example 103, (6S,9S,12S,15S,18R,19R)-9-(aminomethyl)-19-(3,3-dimethylhexyl)-15-isobutyl-16,18-dimethyl-6-[(1S)-1-hydroxyethyl]-12-[(1R)-1-methylpropyl]-1-oxa-4,7,10,13,16-pentazacyclononadecane-2,5,8,11,14,17-hexone]: 3.1 µM (≈ 2.12 µg/mL).
With `CCCCCC[C@H]1OC(=O)CNC(=O)[C@H]([C@H](C)O)NC(=O)[C@H](CN)NC(=O)[C@H]([C@H](C)CC)NC(=O)[C@H](CC2CCCC2)N(C)C(=O)[C@@H]1C` [Example 104, (6S,9S,12S,15S,18R,19R)-9-(aminomethyl)-15-(cyclopentylmethyl)-19-hexyl-16,18-dimethyl-6-[(1S)-1-hydroxyethyl]-12-[(1R)-1-methylpropyl]-1-oxa-4,7,10,13,16-pentazacyclononadecane-2,5,8,11,14,17-hexone] the figure was 6.3 µM (≈ 4.29 µg/mL).

In general, MIC refers to the lowest concentration that inhibits growth of the organism. A higher MIC goes with a less susceptible organism.
